Results as given in US20180193391A1, “INDUCTION OF LAMINA PROPRIA REGULATORY T CELLS” (President and Fellows of Harvard College, priority 2015, published 2018).

Key:
colonic Rorγ^+ Tregs = assay: Mono-colonization of germ free mice with single bacterial species; colonic Rorγ+ Tregs by flow cytometry; assay type: in vivo, Germfree C57BL/6J mice
Procedure: A panel of bacterial species selected from the microbiota of the human gastrointestinal tract were tested for their ability to induce the production of Rorγ^+ Tregs. Bacteria were obtained from the ATCC, BEI Resources, or the German Collection of Microorganisms and Cell Cultures (DSMZ), or from the laboratory collections at Harvard Medical School. Anaerobic bacteria were cultured under strictly anaerobic conditions (80% N2, 10% H2, 10% CO2) at 37° C. in an anaerobic chamber.
Germfree C57BL/6J were maintained in sterile isolators, and were inoculated by gavage with single bacterial species at 4 weeks of age, then housed in gnobiotic isolators. After 2 weeks, mice were sacrificed, colon tissue was harvested, cleaned of luminal content and treated with RPMI containing 1 mM DTT, 20 mM EDTA and 2% FBS at 37° C. for 15 min to remove epithelial cells. The colon tissue was then minced and dissociated in collagenase solution (1.5 mg/ml collagenase II (Gibco), 0.5 mg/ml dispase and 1% FBS in RPMI) with constantly stirring at 37° C. for 45 min. […] Cells were analyzed with a BD LSRII flow cytometer, and data analysis was performed with FlowJo (Tree Star) software. The proportion of Rorγ^+ Tregs was determined within the total population of CD4^+FoxP3^+ Treg cells, and the significance of the difference relative to unmanipulated germfree mice determined using a two-tailed Student's T-test. […]

Rorγ^+ Tregs = assay: IL-33 administration to mice; response of Rorγ+ Tregs; assay type: in vivo; conditions: recombinant mouse IL-33 i.p.
Procedure: Mice were bred in a pathogen-free facility or in germ-free isolators. For IL-33 administration, recombinant mouse IL-33 (BioLegend) was administered i.p. at 2 μg/injection every other day for 7 days.

Row | Molecule | induction of production of Rorγ^+Helios^− LP Tregs (colonic Rorγ^+ Tregs; germ free mice colonized with single bacterial species for 2 weeks, FIGS. 4D, 4E and 5) | ability to promote colonic Treg production (proportions) (colonic Rorγ^+ Tregs; within the Bacteroides genus, mono-colonized germ free mice) | response of Rorγ^+ Tregs to IL-33 (Rorγ^+ Tregs)
1 | Bacteroides fragilis | capable of inducing production | low | –
2 | IL-33: recombinant mouse IL-33 (BioLegend); alarmin (protein, UniProt Q8BVZ5 1-266, looked up) Interleukin-33: MRPRMKYSNSKISPAKFSSTAGEALVPPCKIRRSQQKTKEFCHVYCMRLRSGLTIRKETSYFRKEPTKRYSLKSGTKHEENFSAYPRDSRKRSLLGSIQAFAASVDTLSIQGTSLLTQSPASLSTYNDQSVSFVLENGCYVINVDDSGKDQEQDQVLLRYYESPCPASQSGDGVDGKKLMVNMSPIKDTDIWLHANDKDYSVELQRGDVSPPEQAFFVLHKKSSDFVSFECKNLPGTYIGVKDNQLALVEEKDESCNNIMFKLSKI | – | – | do not respond
